From ChEMBL document CHEMBL1154347, “Isoflavones with unusually modified B-rings and their evaluation as antiproliferative agents” (Bioorg Med Chem Lett, 2009)

Experiments:
[1] = tested on: MCF7; experiment: Antiproliferative activity against estrogen receptor expressing human MCF7 cells; type: functional
[2] = Antiproliferative activity against estrogen receptor negative human MDA-MB-436 cells
[3] = tested on: HeLa; experiment: Cytotoxicity against human HeLa cells; type: functional
[4] = Antiproliferative activity against HUVEC cells; type: cell-based; conditions: human
[5] = tested on: K562; experiment: Antiproliferative activity against human K562 cells; type: functional

Row | SMILES | GI50 [1] [µM] | GI50 [2] [µM] | CC50 [3] [µM] | GI50 [4] [µM] | GI50 [5] [µM]
1 | O=c1c2c(O)cc(O)cc2occ1[C@]1(O)CC[C@@H](O)CC1 | 75 | 147 | – | – | –
2 | O=c1c(-c2ccc(O)cc2)coc2cc(O)cc(O)c12 [GENISTEIN] | 10 | 17 | – | – | –
3 | O=c1c(-c2cc(O)cc(O)c2)coc2cc(O)ccc12 | 73 | 169 | 160 | > 185 | > 185
4 | COc1c(O)ccc(-c2coc3cc(O)ccc3c2=O)c1O | 37 | 68 | – | – | –
5 | O=c1c(C2=CCCC(O)C2O)coc2cc(O)cc(O)c12 (stereo not given) | 6 | 17 | 81 | 17 | > 172
6 | COc1c(O)ccc(-c2coc3cc(O)cc(O)c3c2=O)c1O | 15 | 32 | 77 | 64 | 48
7 | O=c1c(-c2cc(O)cc(O)c2)coc2cc(O)cc(O)c12 | 65 | > 174 | 134 | 133 | 75
8 | O=c1c([C@]2(O)CC[C@@H](O)[C@H](O)C2)coc2cc(O)cc(O)c12 | 84 | 138 | > 162 | > 162 | > 162
9 | O=c1c(-c2ccc(O)cc2)coc2cc(O)ccc12 [DAIDZEIN] | 122 | > 196 | – | – | –
10 | COc1cc(-c2coc3cc(O)ccc3c2=O)ccc1O | 42 | 75 | – | – | –
